# Patent US5723485A, “1,2-Diarylindole derivatives, processes for their preparation and their uses in therapeutics” (Laboratories UPSA, priority 1996, dated 1998)
# How the values were obtained:
# [1] = biological target: T1, COX-1 (purified enzyme from ram seminal vesicles) (Ovis aries, UniProt P05979); experiment: Inhibition of COX-1 enzymatic activity (PGE2 determined by EIA); assay type: biochemical; settings: arachidonic acid 6 μM, mean ± standard deviation, 4 determinations; for inhibition at 10 µM: 10^-5 M; for inhibition at 0.1 µM: 10^-7 M
# T1 construct: purified enzyme from ram seminal vesicles; from tissue; host or cells: ram seminal vesicles
# T1 sequence (P05979 25-600): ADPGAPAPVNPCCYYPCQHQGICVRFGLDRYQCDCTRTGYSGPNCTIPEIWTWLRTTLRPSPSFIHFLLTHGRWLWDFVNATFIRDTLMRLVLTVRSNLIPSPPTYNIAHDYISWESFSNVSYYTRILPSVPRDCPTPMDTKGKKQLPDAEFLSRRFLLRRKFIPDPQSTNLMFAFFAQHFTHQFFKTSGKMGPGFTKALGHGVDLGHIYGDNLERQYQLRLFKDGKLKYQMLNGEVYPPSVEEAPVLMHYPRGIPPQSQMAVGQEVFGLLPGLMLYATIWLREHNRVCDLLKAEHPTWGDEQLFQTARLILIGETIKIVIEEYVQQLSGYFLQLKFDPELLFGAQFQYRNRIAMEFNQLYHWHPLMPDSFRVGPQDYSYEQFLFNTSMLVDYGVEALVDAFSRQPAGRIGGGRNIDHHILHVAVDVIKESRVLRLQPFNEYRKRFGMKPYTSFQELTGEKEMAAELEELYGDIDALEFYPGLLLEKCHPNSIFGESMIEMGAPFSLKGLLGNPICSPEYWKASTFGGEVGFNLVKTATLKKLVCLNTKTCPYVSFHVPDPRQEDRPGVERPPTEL
# Method: (§1) The molecule studied is preincubated for 10 minutes at 25° C. with 2 U of COX-1 (purified enzyme from ram seminal vesicles) or 1 U of COX-2 (purified enzyme from ewe placenta). Arachidonic acid (6 μM for COX-1, 4 μM for COX-2) is added to the reaction medium and incubation is carried out for 5 minutes at 25° C. When incubation has ended, the enzymatic reaction is stopped by the addition of 1N HCl and the PGE2 produced is determined by EIA. The results are expressed as the percentage inhibition of the COX-1 and COX-2 enzymatic activities and correspond to mean (±) standard deviations from the average of 4 determinations.
# [2] = biological target: T2, COX-2 (purified enzyme from ewe placenta) (Ovis aries, UniProt P79208); experiment: Inhibition of COX-2 enzymatic activity (PGE2 determined by EIA); assay type: biochemical; settings: arachidonic acid 4 μM, mean ± standard deviation, 4 determinations; for inhibition at 10 µM: 10^-5 M
# T2 construct: purified enzyme from ewe placenta; from tissue; host or cells: ewe placenta
# T2 sequence (P79208 17-603): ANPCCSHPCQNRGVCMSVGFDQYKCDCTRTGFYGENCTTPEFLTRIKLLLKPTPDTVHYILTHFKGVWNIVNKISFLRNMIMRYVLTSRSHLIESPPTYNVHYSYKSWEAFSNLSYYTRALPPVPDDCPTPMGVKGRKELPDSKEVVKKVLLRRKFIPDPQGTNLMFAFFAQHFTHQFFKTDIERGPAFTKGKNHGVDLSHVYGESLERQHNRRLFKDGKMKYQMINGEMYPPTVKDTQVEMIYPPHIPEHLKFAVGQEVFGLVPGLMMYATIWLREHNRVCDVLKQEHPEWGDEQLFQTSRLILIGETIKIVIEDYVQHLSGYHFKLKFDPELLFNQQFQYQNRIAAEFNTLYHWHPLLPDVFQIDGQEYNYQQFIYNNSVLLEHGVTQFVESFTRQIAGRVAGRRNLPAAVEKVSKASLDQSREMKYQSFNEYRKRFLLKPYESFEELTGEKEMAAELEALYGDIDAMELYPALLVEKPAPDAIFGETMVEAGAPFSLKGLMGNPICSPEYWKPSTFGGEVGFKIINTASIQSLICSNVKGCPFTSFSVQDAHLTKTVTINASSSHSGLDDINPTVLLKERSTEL
# Method: as §1
inhibition at 10 µM [1] [%],inhibition at 0.1 µM [1] [%],inhibition at 10 µM [2] [%],inhibition at 0.1 µM ([2]; 10^-7 M) [%],SMILES
29 ± 5,2 ± 2,89 ± 2,,"Cc1ccc(-n2c(-c3ccc(S(C)(=O)=O)cc3)cc3ccccc32)cc1 [Example 17, 1-(4-Methylphenyl)-2-[4-(methylsulfonyl)phenyl]indole]"
36 ± 14,4 ± 4,83 ± 2,29 ± 2,"CS(=O)(=O)c1ccc(-c2cc3ccccc3n2-c2ccc(F)cc2)cc1 [Example 16, 1-(4-Fluorophenyl)-2-[4-(methylsulfonyl)phenyl]indole]"
,,95,,"CS(=O)(=O)c1ccc(-c2cc3ccccc3n2-c2ccc(Cl)cc2)cc1 [Example 19, 1-(4-Chlorophenyl)-2-[4-(methylsulfonyl)phenyl]indole]"
23 ± 6,2 ± 2,88 ± 2,,"CS(=O)(=O)c1ccc(-c2cc3ccccc3n2-c2ccccc2)cc1 [Example 18, 1-Phenyl-2-[4-(methylsulfonyl)phenyl]indole]"
